Measurements taken from US6740648B2, “Treatment of pulmonary hypertension” (Warner-Lambert Company, priority 2000, dated 2004).
Entries after “also recorded” stand apart in the source; their conditions may differ. Counter-ions that a name gives are not always drawn.

Columns and labels:
V2-receptor = biological target: T1, V2-receptor (Homo sapiens, UniProt P30518); experiment: Aquaretic action in normal subjects (evidence of V2-receptor antagonism); type: in vivo; conditions: for Dose at which aquaretic action with decrease in urine osmolarity starts: normal subjects
T1 construct: from tissue; host or cells: healthy human subjects in vivo (renal effect)

[1] = Example 2: placebo-controlled study of YM087 20 mg IV twice, relief of pulmonary congestion in acute decompensated heart failure; type: in vivo, human; conditions: listed as conivaptan, hydrochloride
Procedure: The trial explores the effect on relief of pulmonary congestion in patients with a history of NYHA Class II-IV heart failure hospitalized in a monitored unit for acute decompensated heart failure. Patients may be on background therapy optionally with ACE-inhibitors, diuretics, digoxin, and β-blockers as long as these medications (excepting diuretics) were initiated prior to admission. On arrival to the hospital, the patient was assessed for enrollment criteria. If the criteria are met, consent was obtained and the patient enrolled. Patients needing treatment with a parenteral inotropic agent (eg milrinone; dobutamine) or who are intubated are excluded. Respiratory rate will be measured. Clinical laboratory parameters are measured if not assessed within 2 hours of screening. Once consented, the patient's clinical distress was assessed by vital signs, the Acute Heart Failure Score, the Physician/Study Coordinator Clinical Assessment Scale for patient's respiratory and global status, and the Patient Visual Analog Scale for respiratory and global status. […] The baseline respiratory rate was measured 5 minutes prior to administration of study medication (must be ≧24 to meet inclusion criteria). […] Clinical laboratory parameters were assessed 8 and 24 hours after start of the first infusion of study medication. […]

[2] = Safety and tolerability in Phase I studies (approximately 250 subjects); type: in vivo, human
[3] = Example 3: placebo-controlled study of YM087 40 mg IV twice, relief of pulmonary congestion in exacerbation of congestive heart failure; type: in vivo, human; conditions: FIG. 8; listed as conivaptan, hydrochloride
Procedure: Patient who meets the inclusion criteria will then be randomized to 1 of 2 treatment group: double-blind treatment phase. […] Patients were administered 100% oxygen for 5 to 10 minutes, and blood gases were measured for assessment of A-a gradient. A baseline respiratory rate is measured 5 minutes prior to administration of study medication (RR must be ≧22 to meet inclusion criteria). […] All patients received usual care at the discretion of the investigator including IV loop diuretics, oxygen, morphine, and IV vasodilators. All patients were administered IV furosemide 20 mg as a minimum dose initially. No additional doses of diuretics should be administered for at least 2 hours after administration of the first dose of study medication; the dose was subsequently adjusted as needed based on the patient's clinical status at the discretion of the investigator. […] Body weight was assessed prior the second dose of study medication. […] During the study, the patient should be receiving the same % oxygen for all respiratory rate and A-a gradient assessments. […] Clinical laboratory parameters were assessed 8 and 24 hours after the first dose of study medication. Serum electrolytes, BUN, and creatinine were measured 4, 8, 12, 18, and 24 hours after administration of the first dose of study medication.

[4] = Example 1: double-blind, placebo-controlled IV dose-response study of cardiopulmonary hemodynamics in patients with Class III/IV heart failure; type: in vivo, human
Procedure: Patients must be receiving background therapy of diuretics, ACE inhibitors, and optionally digoxin and/or β-blocker; patients are stratified as to whether they are receiving concomitant β-blocker treatment. Patients should take their daily dose of concomitant heart failure medications within 2 hours of catheter insertion. No additional doses of background heart failure medications should be administered during the study treatment phase. After insertion of a balloon-flotation pulmonary artery catheter, serial measurements are obtained over an 8-to 18-hour baseline and stabilization period.
Hemodynamic parameters and vital signs are measured at baseline during the 2 hours prior to drug administration and 30 minutes, 1, 2, 3, 4, 6, 8, and 12 hours after start of the IV infusion. A urethral catheter is placed and urine output is measured hourly for 2 hours prior until 12 hours post-study drug administration. Fluid intake is restricted to 250 mL every 2 hours (except at time of IV infusion) from time of insertion of a Swan-Ganz catheter and throughout the treatment period. […] Serum electrolytes, BUN, creatinine, and serum osmolality are measured at baseline and 4 and 12 hours post treatment. Clinical laboratory and vasopressin plasma levels are measured at baseline and 12 hours post-drug administration. A numeric rating scale for assessing dyspnea is administered at baseline and 12 hours after study drug administration.
Patients refrain from taking concomitant heart failure medications during the 12-hour treatment period. Patients are stratified as to whether they are receiving concomitant treatment with a β-blocker. Hemodynamic parameters (cardiac output, intrapulmonary and systemic pressures) and vital signs are measured at 0.5, 1, 2, 3, 4, 6, 8, and 12 hours after start of the IV infusion. Clinical laboratory and vasopressin plasma levels are measured 12 hours postdose. […] Serum electrolytes, BUN, creatinine and serum osmolality are measured at 4 and 12 hours posttreatment. Hourly urine output measurements are obtained during the entire 12-hour treatment phase. The numeric rating scale for assessing dyspnea is administered 12 hours postadministration of study medication.
For this study, hemodynamic efficacy parameters of PCWP, CI, SVR, and PVR are evaluated in terms of their response profile. The response profile is assessed in terms of peak change, and area under the curve (AUC) delimited by the parameter change from baseline and measurement times. The peak change is defined as the maximum change from baseline, within the 3 to 6 hours after treatment administration, in the hemodynamic parameter of interest. The baseline value is considered the last acceptable measurement taken before treatment administration. The AUC is determined using the “linear trapezoidal rule,” which delimits areas of each trapezoid by: two points on the graph of change from baseline against time, perpendiculars from the points to the X-axis, and the X-axis are summed up to get AUC. If measurements are missing at certain times, the AUC are calculated using all other available observations. Dose response over the treatment groups are assessed for selected measures.
The secondary parameter of urine output is summarized at baseline, and each collection time. In addition, a numeric rating scale is used for assessing dyspnea. The corresponding change from baseline for these parameters is summarized. Descriptive summaries include mean, standard error, median, minimum, and maximum. Other concurrently measured hemodynamic parameters (ie, RA, PAs, PAd, cuff SBP, cuff DBP, calculated MAP, and HR) is also summarized.
Hemodynamic assessments are obtained at baseline and at 0.5, 1, 2, 3, 4, 6, 8, and 12 hours after administration of study medication.

[5] = test system: AVP-induced platelet aggregation; experiment: AVP-induced platelet aggregation in Phase I subjects (evidence of V1A antagonist activity); type: in vivo, human; conditions: 20 mg/day orally or 2.5 mg IV
[6] = test system: AVP-induced dermal vasoconstriction; experiment: AVP-induced dermal vasoconstriction in Phase I subjects; type: in vivo, human; conditions: 50 mg IV
[7] = approximately 250 subjects treated

T1 sequence (P30518 whole entry): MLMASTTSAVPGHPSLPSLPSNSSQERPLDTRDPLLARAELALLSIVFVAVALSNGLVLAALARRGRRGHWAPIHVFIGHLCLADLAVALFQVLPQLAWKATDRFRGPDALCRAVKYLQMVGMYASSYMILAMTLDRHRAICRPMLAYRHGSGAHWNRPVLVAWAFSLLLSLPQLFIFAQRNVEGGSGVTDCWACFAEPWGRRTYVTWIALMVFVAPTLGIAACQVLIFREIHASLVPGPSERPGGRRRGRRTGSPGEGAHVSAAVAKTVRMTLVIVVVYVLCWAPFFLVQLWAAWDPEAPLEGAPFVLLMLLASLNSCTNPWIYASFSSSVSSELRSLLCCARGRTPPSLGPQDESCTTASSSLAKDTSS

Cc1nc2c([nH]1)-c1ccccc1N(C(=O)c1ccc(NC(=O)c3ccccc3-c3ccccc3)cc1)CC2 [YM087, N-[4-(2-methyl-4,5,6-tetrahydroimidazo[4,5-d][1]benzazepin-6-ylcarbonyl)phenyl]biphenyl-2-carboxamide hydrochloride]
Duration of increased urine production rate postdosing (V2-receptor; IV 50 mg/day): ≤ 6 h | Duration of increased urine production rate postdosing (V2-receptor; IV doses up to 250 μg/kg): up to 3 hours | Dose at which aquaretic action with decrease in urine osmolarity starts (V2-receptor; IV): 0.05 mg/kg | Dose at which aquaretic action with decrease in urine osmolarity starts (V2-receptor; oral): 15 mg | Patient visual analog scale of respiratory status ([1]; FIG. 6): improved respiratory status; also recorded: improvement | Patient numeric rating scale of respiratory status ([1]; FIG. 7): improved respiratory status; also recorded: improvement | Tolerability of aquaretic effects at higher doses ([2]; 120 mg QD or 60 mg BID orally, or 50 mg IV): too uncomfortable to be tolerable | Drug-related serious adverse events [2, 7]: no drug-related serious adverse events were reported | Major safety concerns [2, 7]: no major safety concerns were identified | Urinary osmolarity ([2]; at higher doses): decreased | Plasma osmolarity ([2]; at higher doses, with or without an increase in plasma sodium): increased | Biochemical or hematological laboratory parameters ([2]; human, in vivo): No drug-related trend | Most frequent adverse events regardless of treatment association ([2]; human, in vivo): mild or moderate thirst and mild headache | Vital signs (blood pressure and heart rate) ([2]; human, in vivo): unaffected | Other adverse events ([2]; human, in vivo, hydrochloride): flushes, a sensation of cold extremities, abdominal complaints, abnormal stools, syncope, dizziness, palpitations, and postural hypotension | Grand mal seizure ([2]; one patient with severe heart failure, 40 mg BID): grand mal seizure that was possibly related to YM087 | Leukopenia / decrease in white blood cell counts ([2]; three subjects who received YM087, one who received placebo, hydrochloride): minor, reversible decrease in white blood cell counts; also recorded: minor, reversible leukopenia | Alveolar-arterial gradient compared to placebo [3]: improved; also recorded: apparent improvement | Reduction of right atrial pressure (RAP) ([4]; 40 mg IV dose, FIG. 1): ≤ 3 mm Hg | Reduction of pulmonary artery systolic pressure (PAs) ([4]; 40 mg IV dose, FIG. 2): ≤ 4 mm Hg | Right atrial pressure (RAP) ([4]; FIG. 1): reduce | Pulmonary artery systolic pressure (PAS) ([4]; FIG. 2): reduce | Mean arterial pressure (MAP) ([4]; FIG. 3): no effect | Systolic blood pressure (SBP) ([4]; FIG. 4): no effect | Systemic hemodynamics ([4]; human, in vivo): no effect | Changes in inspiratory crackles compared to placebo ([4]; post IV dose of 10, 20, 40 mg, FIG. 9): fewer patients on conivaptan had worsened inspiratory crackles | Inhibition of AVP-induced platelet aggregation [5]: Inhibition | Inhibition of AVP-induced dermal vasoconstriction [6]: Total inhibition
